Activity calls are given as the source filed them. The rule behind the calls is not given here.
Legend:
[1] = Apparent permeability of the compound across basal to apical side in human Caco-2 cells expressing Pgp/BCRP at 10 uM incubated for 120 mins by LC-MS/MS analysis; type: ADME, cell-based; details: caco-2, 2 h
[2] = Apparent permeability of the compound across apical to basolateral side in human Caco-2 cells expressing Pgp/BCRP at 10 uM incubated for 120 mins by LC-MS/MS analysis; type: ADME, cell-based; details: caco-2, 2 h
[3] = Metabolic stability in human liver microsomes assessed as parent compound remaining at 2 uM measured at 60 mins by LC-MS/MS analysis; type: ADME, Microsome; details: 1 h
[4] = Efflux ratio of apparent permeability across basolateral to apical side over apical to basolateral side in human Caco-2 cells expressing Pgp/BCRP at 10 uM incubated for 120 mins by LC-MS/MS analysis; type: ADME, cell-based; details: caco-2, 2 h
[5] = Metabolic stability in human liver microsomes assessed as half life at 2 uM measured upto 60 mins by LC-MS/MS analysis; type: ADME, Microsome; details: 1 h
[6] = molecular target: T1, Proteasome subunit beta type-9 (Homo sapiens, UniProt P28065); assay: Inhibition of human LMP2 using Ac-PAL-AMC as substrate incubated for 1 hr by fluorescence based SpectraMax M5e plate reader
T1 sequence (P28065 whole entry): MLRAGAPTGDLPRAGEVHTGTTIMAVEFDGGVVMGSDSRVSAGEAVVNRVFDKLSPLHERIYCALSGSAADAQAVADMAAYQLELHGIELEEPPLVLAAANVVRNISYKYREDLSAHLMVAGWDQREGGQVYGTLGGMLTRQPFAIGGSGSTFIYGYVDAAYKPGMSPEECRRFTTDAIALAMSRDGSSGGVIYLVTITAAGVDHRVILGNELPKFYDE

[7] = Cytotoxicity against human ARPE-19 cells assessed as reduction in cell viability incubated for 96 hrs by CellTiter 96 Aqueous One Solution Cell Proliferation Assay; type: toxicity, cell-based
[8] = Cytotoxicity against human HMC3 cells assessed as reduction in cell viability incubated for 96 hrs by CellTiter 96 Aqueous One Solution Cell Proliferation Assay; type: toxicity, cell-based
[9] = Mutagenicity in Salmonella typhimurium TA100 at 0.01 to 100 uM incubated for 90 mins in absence of liver S9 fraction by AMES test; type: toxicity; details: salmonella enterica subsp. enterica serovar typhimurium, s9, 1.5 h, dose 0.01-100 µM
[10] = Mutagenicity in Salmonella typhimurium TA100 at 0.01 to 100 uM incubated for 90 mins in presence of liver S9 fraction by AMES test; type: toxicity, subcellular; details: salmonella enterica subsp. enterica serovar typhimurium, s9, 1.5 h, dose 0.01-100 µM
[11] = system: HMC3; assay: Cytotoxicity against human HMC3 cells assessed as reduction in cell viability at 30 to 100 uM incubated for 96 hrs by CellTiter 96 Aqueous One Solution Cell Proliferation Assay; type: toxicity, cell-based; details: hmc3, 96 h, dose 30-100 µM
[12] = system: ARPE-19; assay: Cytotoxicity against human ARPE-19 cells assessed as reduction in cell viability at 30 to 100 uM incubated for 96 hrs by CellTiter 96 Aqueous One Solution Cell Proliferation Assay; type: toxicity, cell-based; details: arpe-19, 96 h, dose 30-100 µM
[13] = Mutagenicity in Salmonella typhimurium TA98 at 0.01 to 100 uM incubated for 90 mins in absence of liver S9 fraction by AMES test; type: toxicity; details: salmonella enterica subsp. enterica serovar typhimurium, s9, 1.5 h, dose 0.01-100 µM
[14] = Mutagenicity in Salmonella typhimurium TA98 at 0.01 to 100 uM incubated for 90 mins in presence of liver S9 fraction by AMES test; type: toxicity, subcellular; details: salmonella enterica subsp. enterica serovar typhimurium, s9, 1.5 h, dose 0.01-100 µM
[15] = Mutagenicity in Salmonella typhimurium TA98 at 1 mg/ml incubated for 90 mins in absence of liver S9 fraction by AMES test; type: toxicity; details: salmonella enterica subsp. enterica serovar typhimurium, s9, 1.5 h
[16] = molecular target: T2, Proteasome subunit beta type-9 (Mus musculus) (UniProt P28076); assay: Covalent inhibition of LMP2 in mouse BV-2 cells assessed as band shift at 0.3 to 3 uM incubated for 24 hrs by Western blot analysis; type: cell-based; details: dose 0.3-3 µM
T2 sequence (whole entry): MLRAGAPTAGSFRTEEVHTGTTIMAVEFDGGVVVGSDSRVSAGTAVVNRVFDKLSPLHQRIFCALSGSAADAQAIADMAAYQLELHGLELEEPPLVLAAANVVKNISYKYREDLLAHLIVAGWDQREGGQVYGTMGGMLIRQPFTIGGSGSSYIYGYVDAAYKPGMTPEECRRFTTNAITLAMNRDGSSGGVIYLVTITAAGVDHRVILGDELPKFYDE

SMILES | Papp [1] | Papp [2] | Stability [3] | Ratio [4] | t1/2 [5] [min] | IC50 [6] [nM] | IC50 at 96 h [7] [nM] | IC50 at 96 h [8] [nM] | Activity [9] | Activity [10] | Activity [11] | Activity [12] | Activity [13] | Activity [14] | Activity [15] | inhibition [16]
C[C@]1(C(=O)[C@H](Cc2ccccc2)NC(=O)[C@@H]2Cc3ccc(cc3)OCCCCCCCC(=O)N3CCC[C@H]3C(=O)N2)CO1 | 3.33 10^-6 cm/s | 5.91 10^-6 cm/s | Unstable | 0.56 | 1.35 |  |  |  |  |  |  |  |  |  |  | 
CC(C)C[C@H](NC(=O)[C@@H]1COCCCCCCC(=O)NCC(=O)N2CCC[C@H]2C(=O)N1)C(=O)[C@@]1(C)CO1 | 8.64 10^-6 cm/s | 0.39 10^-6 cm/s | 17% | 22.2 | 24.1 |  |  |  |  |  |  |  |  |  |  | 
C[C@]1(C(=O)[C@H](Cc2ccccc2)NC(=O)[C@@H]2COCCCCCC(=O)N3C[C@H](F)C[C@H]3C(=O)N2)CO1 | 12.6 10^-6 cm/s | 7.52 10^-6 cm/s | 4.57% | 1.68 | 13.4 | 127 |  |  |  |  |  |  |  |  |  | 
CC(C)C[C@H](NC(=O)[C@@H]1COCCCCCC(=O)NCC(=O)N2CCC[C@H]2C(=O)N1)C(=O)[C@@]1(C)CO1 | 7.25 10^-6 cm/s | 0.454 10^-6 cm/s | 46.4% | 21.7 | 55.3 |  |  |  |  |  |  |  |  |  |  | 
CC(C)C[C@H](NC(=O)[C@H](CCc1ccccc1)NC(=O)CN1CCOCC1)C(=O)N[C@@H](Cc1ccccc1)C(=O)N[C@@H](CC(C)C)C(=O)[C@@]1(C)CO1 [CARFILZOMIB] | 5.16 10^-6 cm/s | 0.558 10^-6 cm/s | Unstable | 9.33 | 1.34 |  | 58 | 16 |  |  |  |  |  |  |  | 
CC(C)C[C@H](NC(=O)[C@@H]1COCCCCCC(=O)N2CC[C@H]2C(=O)N1)C(=O)[C@@]1(C)CO1 | 14.8 10^-6 cm/s | 6.8 10^-6 cm/s | 38.8% | 2.17 | 43 |  | > 100000 | > 30000 | Non-Toxic | Non-Toxic | Non-Toxic | Non-Toxic | Non-Toxic | Non-Toxic |  | 
C[C@]1(C(=O)[C@H](Cc2ccccc2)NC(=O)[C@H](CO)NC(=O)c2cccc(=O)[nH]2)CO1 |  |  |  |  |  |  | > 30000 | 24100 |  |  |  |  |  |  |  | 
CC(C)C[C@H](NC(=O)[C@@H]1COCCCCCC(=O)N2CC(F)(F)C[C@H]2C(=O)N1)C(=O)[C@@]1(C)CO1 | 14.4 10^-6 cm/s | 29.1 10^-6 cm/s | 13.5% | 0.52 | 21.6 |  | > 100000 | > 100000 |  |  | Non-Toxic | Non-Toxic |  |  | Toxic | 
C[C@]1(C(=O)[C@H](CC2=CCCC2)NC(=O)[C@@H]2COCCCCCC(=O)N3C[C@H](F)C[C@H]3C(=O)N2)CO1 | 9.06 10^-6 cm/s | 8.03 10^-6 cm/s | 0.3% | 1.13 | 8.29 | 137 | > 100000 | > 100000 | Non-Toxic | Non-Toxic | Non-Toxic | Non-Toxic | Non-Toxic | Non-Toxic |  | Active
C[C@]1(C(=O)[C@H](CC2=CCCC2)NC(=O)[C@@H]2Cc3ccc(cc3)OCCCCCCCC(=O)N3CCC[C@H]3C(=O)N2)CO1 | 1.05 10^-6 cm/s | 2.44 10^-6 cm/s | Unstable | 0.43 |  | 220 |  |  |  |  |  |  |  |  |  | 
